Experiments:
Type in all cases: functional
Nilaparvata lugens [1] = experiment: Insecticidal activity against adult Nilaparvata lugens (brown planthopper) assessed as mortality at 600 ug/disc after 24 hr relative to control
Thrips palmi [2] = experiment: Insecticidal activity against adult Thrips palmi assessed as mortality at 37.5 ug/disk after 72 hr relative to control
Plutella xylostella [3] = experiment: Insecticidal activity against adult Plutella xylostella (diamondback moth) assessed as mortality at 600 ug/disc after 48 hr relative to control
Frankliniella intonsa [4] = experiment: Insecticidal activity against adult Frankliniella intonsa assessed as mortality at 12.5 ug/disk after 48 hr relative to control
Frankliniella intonsa [5] = experiment: Insecticidal activity against adult Frankliniella intonsa assessed as mortality at 25 ug/disk after 72 hr relative to control
[6] = test system: Frankliniella occidentalis; experiment: Insecticidal activity against adult Frankliniella occidentalis (western flower thrips) assessed as mortality at 37.5 ug/disc after 24 hr relative to control
Thrips palmi [7] = experiment: Insecticidal activity against adult Thrips palmi assessed as mortality at 25 ug/disk after 24 hr relative to control
Spodoptera litura [8] = experiment: Insecticidal activity against adult Spodoptera litura assessed as mortality at 60 ug/disc after 24 hr relative to control
Nilaparvata lugens [9] = experiment: Insecticidal activity against adult Nilaparvata lugens (brown planthopper) assessed as mortality at 60 ug/disc after 48 hr relative to control
Frankliniella intonsa [10] = experiment: Insecticidal activity against adult Frankliniella intonsa assessed as mortality at 37.5 ug/disk after 72 hr relative to control
Frankliniella intonsa [11] = experiment: Insecticidal activity against adult Frankliniella intonsa assessed as mortality at 37.5 ug/disk after 48 hr relative to control
[12] = test system: Frankliniella occidentalis; experiment: Insecticidal activity against adult Frankliniella occidentalis (western flower thrips) assessed as mortality at 12.5 ug/disc after 72 hr relative to control
Thrips palmi [13] = experiment: Insecticidal activity against adult Thrips palmi assessed as mortality at 50 ug/disk after 24 hr relative to control
Nilaparvata lugens [14] = experiment: Insecticidal activity against adult Nilaparvata lugens (brown planthopper) assessed as mortality at 600 ug/disc after 48 hr relative to control
[15] = test system: Frankliniella occidentalis; experiment: Insecticidal activity against adult Frankliniella occidentalis (western flower thrips) assessed as mortality at 75 ug/disc after 24 hr relative to control
Plutella xylostella [16] = experiment: Insecticidal activity against adult Plutella xylostella (diamondback moth) assessed as mortality at 60 ug/disc after 24 hr relative to control
Frankliniella intonsa [17] = experiment: Insecticidal activity against adult Frankliniella intonsa assessed as mortality at 25 ug/disk after 48 hr relative to control
Thrips palmi [18] = experiment: Insecticidal activity against adult Thrips palmi assessed as mortality at 37.5 ug/disk after 24 hr relative to control
Frankliniella intonsa [19] = experiment: Insecticidal activity against adult Frankliniella intonsa assessed as mortality at 50 ug/disk after 72 hr relative to control
Thrips palmi [20] = experiment: Insecticidal activity against adult Thrips palmi assessed as mortality at 12.5 ug/disk after 72 hr relative to control
Thrips palmi [21] = experiment: Insecticidal activity against adult Thrips palmi assessed as mortality at 25 ug/disk after 72 hr relative to control
Thrips palmi [22] = experiment: Insecticidal activity against adult Thrips palmi assessed as mortality at 12.5 ug/disk after 48 hr relative to control
Thrips palmi [23] = experiment: Insecticidal activity against adult Thrips palmi assessed as mortality at 37.5 ug/disk after 48 hr relative to control
Spodoptera litura [24] = experiment: Insecticidal activity against adult Spodoptera litura assessed as mortality at 600 ug/disc after 24 hr relative to control
[25] = test system: Frankliniella occidentalis; experiment: Insecticidal activity against adult Frankliniella occidentalis (western flower thrips) assessed as mortality at 12.5 ug/disc after 48 hr relative to control
[26] = test system: Frankliniella occidentalis; experiment: Insecticidal activity against adult Frankliniella occidentalis (western flower thrips) assessed as mortality at 37.5 ug/disc after 48 hr relative to control
Frankliniella intonsa [27] = experiment: Insecticidal activity against adult Frankliniella intonsa assessed as mortality at 75 ug/disk after 24 hr relative to control
Plutella xylostella [28] = experiment: Insecticidal activity against adult Plutella xylostella (diamondback moth) assessed as mortality at 600 ug/disc after 24 hr relative to control
Frankliniella intonsa [29] = experiment: Insecticidal activity against adult Frankliniella intonsa assessed as mortality at 37.5 ug/disk after 24 hr relative to control
Frankliniella intonsa [30] = experiment: Insecticidal activity against adult Frankliniella intonsa assessed as mortality at 12.5 ug/disk after 72 hr relative to control
[31] = test system: Frankliniella occidentalis; experiment: Insecticidal activity against adult Frankliniella occidentalis (western flower thrips) assessed as mortality at 12.5 ug/disc after 24 hr relative to control
Spodoptera litura [32] = experiment: Insecticidal activity against adult Spodoptera litura assessed as mortality at 60 ug/disc after 48 hr relative to control
Thrips palmi [33] = experiment: Insecticidal activity against adult Thrips palmi assessed as mortality at 25 ug/disk after 48 hr relative to control
Frankliniella intonsa [34] = experiment: Insecticidal activity against adult Frankliniella intonsa assessed as mortality at 12.5 ug/disk after 24 hr relative to control
Frankliniella intonsa [35] = experiment: Insecticidal activity against adult Frankliniella intonsa assessed as mortality at 25 ug/disk after 24 hr relative to control
Thrips palmi [36] = experiment: Insecticidal activity against adult Thrips palmi assessed as mortality at 12.5 ug/disk after 24 hr relative to control
Plutella xylostella [37] = experiment: Insecticidal activity against adult Plutella xylostella (diamondback moth) assessed as mortality at 60 ug/disc after 48 hr relative to control
Thrips palmi [38] = experiment: Insecticidal activity against adult Thrips palmi assessed as mortality at 50 ug/disk after 48 hr relative to control
Spodoptera litura [39] = experiment: Insecticidal activity against adult Spodoptera litura assessed as mortality at 600 ug/disc after 48 hr relative to control
Nilaparvata lugens [40] = experiment: Insecticidal activity against adult Nilaparvata lugens (brown planthopper) assessed as mortality at 60 ug/disc after 24 hr relative to control
Thrips palmi [41] = experiment: Insecticidal activity against adult Thrips palmi assessed as mortality at 75 ug/disk after 24 hr relative to control
Frankliniella intonsa [42] = experiment: Insecticidal activity against adult Frankliniella intonsa assessed as mortality at 50 ug/disk after 48 hr relative to control

C=C1CCOC1=O [TULIPALINE A]
mortality at 600 µg/disc (Nilaparvata lugens [1]): 0%
mortality at 37.5 µg/disc (Thrips palmi [2]): 100%
mortality at 600 µg/disc (Plutella xylostella [3]): 50%
mortality at 12.5 µg/disc (Frankliniella intonsa [4]): 0%
mortality at 25 µg/disc (Frankliniella intonsa [5]): 48%
mortality at 37.5 µg/disc [6]: 52%
mortality at 25 µg/disc (Thrips palmi [7]): 14%
mortality at 60 µg/disc (Spodoptera litura [8]): 0%
mortality at 60 µg/disc (Nilaparvata lugens [9]): 0%
mortality at 37.5 µg/disc (Frankliniella intonsa [10]): 76%
mortality at 37.5 µg/disc (Frankliniella intonsa [11]): 66%
mortality at 12.5 µg/disc [12]: 12%
mortality at 50 µg/disc (Thrips palmi [13]): 80%
mortality at 600 µg/disc (Nilaparvata lugens [14]): 30%
mortality at 75 µg/disc [15]: 100%
mortality at 60 µg/disc (Plutella xylostella [16]): 0%
mortality at 25 µg/disc (Frankliniella intonsa [17]): 48%
mortality at 37.5 µg/disc (Thrips palmi [18]): 56%
mortality at 50 µg/disc (Frankliniella intonsa [19]): 94%
mortality at 12.5 µg/disc (Thrips palmi [20]): 20%
mortality at 25 µg/disc (Thrips palmi [21]): 90%
mortality at 12.5 µg/disc (Thrips palmi [22]): 14%
mortality at 37.5 µg/disc (Thrips palmi [23]): 94%
mortality at 600 µg/disc (Spodoptera litura [24]): 0%
mortality at 12.5 µg/disc [25]: 8%
mortality at 37.5 µg/disc [26]: 100%
mortality at 75 µg/disc (Frankliniella intonsa [27]): 100%
mortality at 600 µg/disc (Plutella xylostella [28]): 0%
mortality at 37.5 µg/disc (Frankliniella intonsa [29]): 58%
mortality at 12.5 µg/disc (Frankliniella intonsa [30]): 0%
mortality at 12.5 µg/disc [31]: 4%
mortality at 60 µg/disc (Spodoptera litura [32]): 0%
mortality at 25 µg/disc (Thrips palmi [33]): 70%
mortality at 12.5 µg/disc (Frankliniella intonsa [34]): 0%
mortality at 25 µg/disc (Frankliniella intonsa [35]): 34%
mortality at 12.5 µg/disc (Thrips palmi [36]): 2%
mortality at 60 µg/disc (Plutella xylostella [37]): 0%
mortality at 50 µg/disc (Thrips palmi [38]): 100%
mortality at 600 µg/disc (Spodoptera litura [39]): 20%
mortality at 60 µg/disc (Nilaparvata lugens [40]): 0%
mortality at 75 µg/disc (Thrips palmi [41]): 100%
mortality at 50 µg/disc (Frankliniella intonsa [42]): 70%

From ChEMBL document CHEMBL3046447, “Insecticidal Activity of α-Methylene-γ-butyrolactone against Several Insect Pests” (1999)
